Earlier results, collected in patent publication US20070015926A1, “Method of preparing R-(+)-alpha-lipoic acid and its salt” (Nanjing Rally Biochemical Inc., priority 2005, published 2007).

Conditions: if given adequate oxygen

polymerization: susceptible to be polymerized
Structure (SMILES): O=C(O)CCCC[C@@H]1CCSS1 [R-(+)-α-Lipoic Acid]
